Measurements published in PubChem BioAssay AID1996.
≈ marks a conversion by molar mass, not a printed value.

Details: buffer; pH 7.4; 200.0 µM
Compound `COC(=O)c1ccc(NC(=O)C2CC(=O)OC2c2ccccc2)cc1` (stereo not given) has a solubility kinetic of 36 µg/mL (≈ 106 µM). With `Cc1ccc(CNC(=O)C2CCCN(c3nc(C)cc(C)n3)C2)cc1` (stereo not given) the solubility kinetic was 0.6 µg/mL (≈ 1.77 µM). In the case of `Clc1ccc(NCc2cccnc2)c(Cl)c1`, the solubility kinetic is reported as 29.1 µg/mL (≈ 115 µM). With `O=C(Nc1nccs1)c1cc2cc(Cl)ccc2oc1=O` the solubility kinetic was 1.5 µg/mL (≈ 4.89 µM). In the case of `Cc1sc2nc(C(C)C)nc(SCC(=O)NC3CC3)c2c1C`, the solubility kinetic is reported as 1.5 µg/mL (≈ 4.47 µM). In the case of `Cc1ccc(NC(=O)Nc2ccon2)cc1Cl`, the solubility kinetic is reported as 4 µg/mL (≈ 15.9 µM). `O=C(COC(=O)c1cccs1)NCc1cccs1` gave a solubility kinetic of 40 µg/mL (≈ 142 µM). For `CC#CC[N+](C)(C)CC(=O)c1ccccc1.[Br-]`, the solubility kinetic was > 44.4 µg/mL. For `Cc1[nH]c2ccccc2c1C(=O)C(=O)N1CCC2(CC1)OCCO2`, the solubility kinetic was > 49.3 µg/mL. For `CCOc1ncccc1C(=O)Nc1ccc2c(c1)OCCCO2`, the solubility kinetic was > 47.2 µg/mL. In the case of `Cc1noc(C(=O)NCC2CCCO2)c1Cl` (stereo not given), the solubility kinetic is reported as > 36.7 µg/mL. Compound `COc1ccc(CN(C)C(=O)COC(=O)c2cnc(Cl)c(Cl)c2)cc1` has a solubility kinetic of 53.1 µg/mL (≈ 139 µM). Compound `O=[N+]([O-])c1cccc(CNC2CCCCCC2)c1` has a solubility kinetic of 24.6 µg/mL (≈ 99.1 µM). For `C=CCNC(=O)N1CCCC(C(=O)c2cccc(OC(C)C)c2)C1` (stereo not given), the solubility kinetic was > 49.6 µg/mL. For `Cn1c2c(c(=O)n(C)c1=O)C(CC(=O)Nc1ccccc1F)C(=O)N2` (stereo not given), the solubility kinetic was > 51.9 µg/mL. With `COc1ccc(CNC(=O)C(=O)NCCCn2ccnc2)cc1` the solubility kinetic was > 47.5 µg/mL. Work on `Cc1ccc2oc(C(=O)Nc3cc(C)on3)c(C)c2c1` yielded a solubility kinetic of 1.2 µg/mL (≈ 4.44 µM). In the case of `O=c1oc2ccccc2nc1/C=C(\O)c1ccc(Br)cc1`, the solubility kinetic is reported as 19 µg/mL (≈ 55.2 µM). With `O=C(Nc1cccc2cccnc12)c1ccc(Cl)cc1Cl` the solubility kinetic was < 0.3 µg/mL. With `CC(=O)c1ccc(N2CCN(C(=O)c3cc4c(s3)CCCC4)CC2)cc1` the solubility kinetic was 10.7 µg/mL (≈ 29 µM). For `Cc1cccc(CC2CC(=O)N(CCc3ccc4c(c3)OCO4)C2=O)c1` (stereo not given), the solubility kinetic was 11.5 µg/mL (≈ 32.7 µM). With `Cc1ccc(Cn2c(CCC(=O)O)nc3ncccc3c2=O)cc1` the solubility kinetic was > 48.5 µg/mL. `O=C(NC(=S)Nc1ncccn1)c1ccc(F)cc1` gave a solubility kinetic of 7.3 µg/mL (≈ 26.4 µM). Compound `COc1ccccc1NCC(=O)NC(=O)NC1CCCCC1` has a solubility kinetic of 5.9 µg/mL (≈ 19.3 µM). For `CCOc1ccc(Br)cc1S(=O)(=O)Nc1cccc(S(=O)(=O)Nc2ccccc2C(=O)O)c1`, the solubility kinetic was > 83.3 µg/mL. For `COC(c1ccccc1)(c1ccccc1)C(Oc1nccc(C)n1)C(=O)O` (stereo not given), the solubility kinetic was 51 µg/mL (≈ 140 µM). In the case of `FC(F)(F)c1cccc(CN2CCN(c3ncccn3)CC2)c1`, the solubility kinetic is reported as 8.7 µg/mL (≈ 27 µM). `Cc1ccc(-c2nc(-c3ccncc3)no2)cc1C` showed a solubility kinetic of 0.7 µg/mL (≈ 2.79 µM). For `O=C1c2ccc([N+](=O)[O-])cc2C(=O)N1c1ccc(Cl)cn1`, the solubility kinetic was > 45.5 µg/mL. `CC(C)(C)NC(=O)COC(=O)c1ccc(Cl)cc1O` showed a solubility kinetic of 7.3 µg/mL (≈ 25.5 µM). In the case of `CSc1nc(-c2ccccc2)cc(C)c1C#N`, the solubility kinetic is reported as < 0.3 µg/mL. With `CCNC1CCS(=O)(=O)C1` (stereo not given) the solubility kinetic was > 24.5 µg/mL. `CC(=O)c1ccc(NC(=O)C(C)NCc2ccccc2Cl)cc1` (stereo not given) gave a solubility kinetic of 38.3 µg/mL (≈ 116 µM). Work on `Cn1cccc1C(=O)NC(=O)COC(=O)c1ccc(S(C)(=O)=O)cc1` yielded a solubility kinetic of 8.7 µg/mL (≈ 23.9 µM). `O=C1N(Cc2ccccc2)c2ccc(Cl)cc2C12OCCO2` showed a solubility kinetic of 9 µg/mL (≈ 28.5 µM). `COc1ccc(NC(=O)c2ccc3nc(C)sc3c2)cc1` showed a solubility kinetic of 15.4 µg/mL (≈ 51.6 µM). In the case of `O=C(COC(=O)/C=C/c1ccccc1)NCc1ccc2c(c1)OCO2`, the solubility kinetic is reported as 4.8 µg/mL (≈ 14.1 µM). For `CCCC(=O)Nc1ccc2c(c1)nc(CCN1CCCCC1)n2C`, the solubility kinetic was > 49.3 µg/mL. In the case of `CC1CC(Nc2ccccc2)c2ccccc2N1C(=O)c1ccncc1` (stereo not given), the solubility kinetic is reported as 25.9 µg/mL (≈ 75.4 µM). `COc1cc(C)c(S(=O)(=O)NCCCn2ccnc2)cc1C` showed a solubility kinetic of 39.6 µg/mL (≈ 122 µM). Work on `O=CN(c1ccccc1)c1ccc2ccccc2c1` yielded a solubility kinetic of 14.2 µg/mL (≈ 57.4 µM). With `Cc1nn(C)c(Cl)c1/C=N/OC(=O)c1ccccc1` the solubility kinetic was > 41.7 µg/mL. Compound `Cc1nc2ccc([N+](=O)[O-])cc2s1` has a solubility kinetic of 19.4 µg/mL (≈ 99.9 µM). For `Cc1cnc(C(=O)NCc2ccc(Cl)cc2Cl)cn1`, the solubility kinetic was 7.7 µg/mL (≈ 26 µM). Work on `O=C(Nc1cccc([N+](=O)[O-])c1)N1CCCc2ccccc21` yielded a solubility kinetic of 34.6 µg/mL (≈ 116 µM). `COc1cccc(OCCn2cc(C=O)c3ccccc32)c1` gave a solubility kinetic of 12.2 µg/mL (≈ 41.3 µM). Work on `CC12CCC(=O)N1C(C(=O)NCCc1ccccc1)CS2` (stereo not given) yielded a solubility kinetic of 37.6 µg/mL (≈ 124 µM). `CC(C)(C)NS(=O)(=O)c1ccc(NC(=S)NC(=O)C2CC2)cc1` showed a solubility kinetic of 3 µg/mL (≈ 8.44 µM). Compound `O=C(NCCCSc1ccccc1)c1cc(Cl)ccc1O` has a solubility kinetic of 0.9 µg/mL (≈ 2.8 µM). In the case of `CCOC(=O)c1sc(=NC(=O)CCSc2ccccc2)n(C)c1C`, the solubility kinetic is reported as < 0.4 µg/mL. In the case of `CCCCNC(=O)Nc1nc2ccc(CC)cc2s1`, the solubility kinetic is reported as 0.7 µg/mL (≈ 2.52 µM). For `Cc1ccc(SCC(=O)O/N=C(\N)c2ccncc2)cc1`, the solubility kinetic was 29.4 µg/mL (≈ 97.6 µM). For `CC(C)Cc1nc(Cl)c(C#N)c2c1CCC2`, the solubility kinetic was 3.8 µg/mL (≈ 16.2 µM). With `Cc1nc2ccccc2n1CCOc1ccccc1` the solubility kinetic was > 37.8 µg/mL. For `CCN(CC)CCCNc1cc(C)nc2cc(-c3cccs3)nn12`, the solubility kinetic was > 51.5 µg/mL. Work on `CN(C)c1ccc(C(O)Cc2nc3ccccc3n2C)cc1` (stereo not given) yielded a solubility kinetic of 12.1 µg/mL (≈ 41 µM). With `Cc1cccc(OCC(=O)O/N=C(\N)c2ccncc2)c1` the solubility kinetic was > 42.8 µg/mL. `CCN(c1ccccc1)S(=O)(=O)c1ccc(C(=O)NC2CCN(Cc3ccccc3)CC2)cc1` showed a solubility kinetic of 47.8 µg/mL (≈ 100 µM). `N/C(=N\OC(=O)c1ccc(Cl)cc1Cl)c1ccncc1` showed a solubility kinetic of 16.5 µg/mL (≈ 53.2 µM). In the case of `CCOC(=O)c1c[nH]c(=S)n1C`, the solubility kinetic is reported as > 27.9 µg/mL.
